Results published in US11583524B2, “Inhibitors of the interaction between MDM2 and P53” (Janssen Pharmaceutica NV, priority 2007, dated 2023).

How the values were obtained:
Type in all cases: cell-based, human
U87MG glioma cells = experiment: Alamar Blue cell proliferation assay, U87MG; settings: 4-day incubation
Description: The human U87MG glioma cells were cultured in DMEM medium supplemented with 2 mM L-Glutamine, 1 mM Sodium Pyruvate, 1.5 g/L Sodium Bicarbonate, 50 μg/ml gentamicin and 10% heat inactivated fetal calf serum. (U87MG cells are human glioblastoma cells with wild type p53. In this cell line MDM2 tightly controls p53 expression).
(§1) Resazurin was purchased from Aldrich (Prod. No. 199303). Potassium ferrocyanide, potassium ferricyanide, KH2PO4 and K2HPO4 were purchased from Sigma (Prod. Nos. P9387, P8131, P5655 and P8281, respectively).
(§2) Potassium Phosphate Buffer 0.1 M (PPB) was made as follows: 2.72 gram KH2PO4 and 13.86 gram K2HPO4 were dissolved in 500 ml milli-Q H2O, the pH was adjusted to pH 7.4 and the volume was brought to 1 litre with milli-Q H2O; the buffer was filter sterilised and stored at room temperature. Resazurin stock solution (PPB-A) was prepared fresh by dissolving 45 mg resazurin in 15 ml PBS. 30 mM potassium ferricyanide (PPB-B) was prepared by dissolving 0.987 gram potassium ferricyanide in 100 ml PPB. 30 mM potassium ferrocyanide (PPB-C) was prepared by dissolving 1.266 gram potassium ferrocyanide in 100 ml PPB.
(§3) Mixture of PPB-A, PPB-B and PPB-C was prepared by mixing equal volumes of the respective solutions. Resazurin work solution (herein termed “Alamar Blue” solution) was prepared by diluting said mixture 20×(vol/vol) in PPB and filter sterilising; the Alamar Blue solution could be kept at 4° C. for a maximum of 2 weeks.
(§4) For experiments in 384 wells plates the cells were seeded at a density of 5×10^3 cells/ml in Falcon 384-well culture plates (Life Technologies, Merelbeke, Belgium), black with clear bottom, in 45 μl culture medium. Cells were allowed to adhere to plastic for 24 hr. The tested compound was pre-diluted (1/50 in culture medium) and 5 μl pre-diluted compound was added to the wells. Following 4-day incubation, 10 μl of the Alamar Blue solution was added to each well and the cells were further incubated for 5 hrs (A2780) or 6 hrs (U87MG) at 37° C. The fluorescence intensity was measured for each well with a Fluorescence plate reader (Fluorskan, Labsystems, 540 nm excitation and 590 nm emission)
(§5) The antiproliferative activity was calculated as percentage of remaining viable cells in treated versus control (untreated cells) conditions. Within an experiment, the result for each experimental condition is the mean of 3 replicate wells. When appropriate, the experiments were repeated to establish full concentration-response curves. When appropriate, IC50-values (concentration of the drug, needed to reduce cell growth to 50% of the control) were computed using probit analysis for graded data (Finney, D. J., Probit Analyses, 2nd Ed. Chapter 10, Graded Responses, Cambridge University Press, Cambridge 1962). Herein the effects of test compounds are expressed as pIC50 (the negative log value of the IC50-value) (see Table 4).

p53 in A2780 cells = experiment: p53 ELISA (preservation of p53 in A2780 cells); settings: lowest dose giving at least 140% of the p53 value in the control, 16 hours treatment
Description: The capacity of the compounds to preserve p53 in A2780 cells was measured with the p53 enzyme linked immunosorbent assay (ELISA). The p53 assay is a “sandwich” enzyme immunoassay employing two polyclonal antibodies. A polyclonal antibody, specific for the p53 protein, has been immobilized onto the surface of the plastic wells. Any p53 present in the sample to be assayed will bind to the capture antibody. The biotinylated detector polyclonal antibody also recognizes p53 protein, and will bind to any p53, which has been retained by the capture antibody. The detector antibody, in turn, is bound by horseradish peroxidase-conjugated streptavidin. The horseradish peroxidase catalyses the conversion of the chromogenic substrate o-phenylene diamine, the intensity of which is proportional to the amount of p53 protein bound to the plate. The coloured reaction product is quantified using a spectrophotometer. Quantitation is achieved by the construction of a standard curve using known concentrations of purified recombinant HIS tagged p53 protein (see example C.1).
A2780 cells (ATCC) were cultivated in RPMI 1640 supplemented with 10% fetal calf serum (FCS), 2 mM L-glutamine and gentamycin at 37° C. in a humidified incubator with 5% CO2.
A2780 cells were seeded at 20.000 cells per well in a 96 well plate, cultured for 24 hours and treated with compound for 16 hours at 37° C. in a humidified incubator. After incubation, the cells were washed once with phosphate-buffered saline and 30 μl, per well, low salt RIPA buffer (20 mM tris, pH7.0, 0.5 mM EDTA, 1% Nonidet P40, 0.5% DOC, 0.05% SDS, 1 mM PMSF, 1 μg/ml aprotinin and 0.5 μ/ml leupeptin) was added. Plates were placed on ice for 30 minutes to complete the lysis. p53 protein was detected in de lysates by using the sandwich ELISA, described below.
High binding polystyrene EIA/RIA 96 well plates (Costar 9018) were coated with the capture antibody pAb1801 (Abcam ab28-100) at a concentration of 1 μg/ml in coating buffer (0.1 M NaHCO3 pH8.2), 50 μl per well. The antibody was allowed to adhere overnight at 4° C. Coated plates were washed once with phosphate-buffered saline (PBS)/0.05% Tween 20 and 300 μl of blocking buffer (PBS, 1% bovine serum albumins (BSA)) was added, for an incubation period of 2 hours at room temperature. Dilutions of purified recombinant HIS tagged p53 protein, ranging from 3-200 ng/ml, were made in blocking buffer and used as standards.
Plates were washed twice with PBS/0.05% Tween 20 and blocking buffer or standards were added at 80 μl/well. To the standards, 20 μl of lysis buffer was added. The samples were added to the other wells at 20 μl lysate/well. After an overnight incubation at 4° C., plates were washed twice with PBS/0.05% Tween 20. Aliquots of 100 μl secondary polyclonal antibody p53(FL-393) (Tebubio, sc-6243) at a concentration of 1 μg/ml in blocking buffer were added to each well and allowed to adhere for 2 hours at room temperature. Plates were washed three times with PBS/0.05% Tween 20. Detection antibody anti-rabbit HRP (sc-2004, Tebubio) at 0.04 μg/ml in PBS/1% BSA was added and incubated for 1 hour at room temperature. Plates were washed three times with PBS/0.05% Tween 20 and 100 μl of substrate buffer was added (substrate buffer was prepared shortly before use by adding 1 tablet of 10 mg o-phenylene diamine (OPD) from Sigma and 125 μl 3% H2O2 to 25 ml OPD buffer: 35 mM citric acid, 66 mM Na2HPO4, pH5.6). After 5 to 10 minutes, colour reaction was stopped by adding 50 μl stop buffer (1 M H2SO4) per well. The absorbance at dual wavelengths of 490/655 nm was measured using a Biorad micro plate reader and the results were then analyzed.
For each experiment, controls (containing no drug) and a blank incubation (containing no cells or drugs) were run in parallel. The blank value was subtracted from all control and sample values. For each sample, the value of p53 (in absorbance units) was expressed as the percentage of the value for p53 present in the control. […]

[1] = test system: A2780 ovarian cancer cells; experiment: Alamar Blue cell proliferation assay, A2780; settings: 4-day incubation
Description: Cellular activity of the compounds of formula (I) was determined on A2780 tumour cells using a colorimetric assay for cell toxicity or survival (see example C.2).
The human A2780 ovarian cancer cells were a kind gift from Dr. T. C. Hamilton (Fox Chase Cancer Centre, Pennsylvania, U.S.A.). The cells were cultured in RPMI 1640 medium supplemented with 2 mM L-Glutamine, 50 μg/ml gentamicin and 10% fetal calf serum.
as §1, §2, §3, §4, §5

Row | SMILES | U87MG cell proliferation inhibition pIC50 (U87MG glioma cells) | p53-elisa LAD (p53 in A2780 cells) [µM] | A2780 cell proliferation inhibition pIC50 [1] | IC50 (U87MG glioma cells; Homo sapiens, U-87 MG, 96 h, read-out: U87MG cell proliferation inhibition pIC50 (converted)) [µM] | minimal effective concentration (p53 in A2780 cells; Homo sapiens, read-out: p53-elisa LAD) [µM] | IC50 ([1]; Homo sapiens, 96 h, read-out: A2780 cell proliferation inhibition pIC50 (converted)) [µM]
1 | COc1ccc2c(CCNc3c(F)cc(Nc4ccncc4)cc3F)c[nH]c2c1 [Compound 13] | 5.18 | >10.0 | <5 | – | – | –
2 | OCc1cc(Nc2cc(F)c(NCCc3c[nH]c4ccccc34)c(F)c2)ccn1 [Compound 14] | – | – | – | > 10 | > 10 | > 10
3 | COc1ccc2c(CCNc3c(F)cc(Nc4ccnc(CO)c4)cc3F)c[nH]c2c1 [Compound 16] | <5 | >10.0 | <5 | – | – | –
4 | COc1ccc2c(CCNc3c(F)cc(Nc4ccnc5c4CCC5O)cc3F)c[nH]c2c1 (centres unmarked) [Compound 19] | 5.15 | >10.0 | <5 | – | – | –
5 | Clc1cc(Nc2ccncc2)cc(Cl)c1NCCc1c[nH]c2ccccc12 [Compound 20] | <5 | >10.0 | <5 | – | – | –
6 | Cc1cccc2c(CCNc3c(Cl)cc(Nc4ccncc4)cc3Cl)c[nH]c12 [Compound 21] | <5 | >10.0 | <5 | – | – | –
7 | COc1ccc2c(CCNc3c(Cl)cc(Nc4ccncc4)cc3Cl)c[nH]c2c1 [Compound 22] | 5.29 | >10.0 | <5 | – | – | –
8 | COc1cccc2c(CCNc3c(Cl)cc(Nc4ccncc4)cc3Cl)c[nH]c12 [Compound 23] | <5 | >10.0 | <5 | – | – | –
9 | COc1ccc2c(CCNc3c(Cl)cc(Nc4ccnc(CO)c4)cc3Cl)c[nH]c2c1 [Compound 27] | <5 | >10.0 | <5 | – | – | –
10 | COc1cccc2c(CCNc3c(Cl)cc(Nc4ccnc(CO)c4)cc3Cl)c[nH]c12 [Compound 28] | <5 | >10.0 | <5 | – | – | –
11 | Cc1cccc2c(CCNc3c(Cl)cc(Nc4ccnc5ccccc45)cc3Cl)c[nH]c12 [Compound 30] | 5.06 | 1.0 | 5.08 | – | – | –
12 | COc1cccc2c(CCNc3c(Cl)cc(Nc4ccnc5ccccc45)cc3Cl)c[nH]c12 [Compound 32] | 5.48 | >10.0 | <5 | – | – | –
13 | OC1CCc2c(Nc3cc(Cl)c(NCCc4c[nH]c5ccccc45)c(Cl)c3)ccnc21 (centres unmarked) [Compound 33] | <5 | 3.0 | <5 | – | – | –
14 | Cc1[nH]c2ccccc2c1CCNc1c(Cl)cc(Nc2ccnc3c2CCC3O)cc1Cl (centres unmarked) [Compound 34] | 5.14 | 1.0 | 5.67 | – | – | –
15 | Cc1cccc2c(CCNc3c(Cl)cc(Nc4ccnc5c4CCC5O)cc3Cl)c[nH]c12 (centres unmarked) [Compound 35] | <5 | 1.0 | <5 | – | – | –
16 | COc1ccc2c(CCNc3c(Cl)cc(Nc4ccnc5c4CCC5O)cc3Cl)c[nH]c2c1 (centres unmarked) [Compound 36] | 5.08 | 10.0 | <5 | – | – | –
17 | COc1cccc2c(CCNc3c(Cl)cc(Nc4ccnc5c4CCC5O)cc3Cl)c[nH]c12 (centres unmarked) [Compound 37] | <5 | 3.0 | <5 | – | – | –
18 | OCc1cc(Nc2cc(Br)c(NCCc3c[nH]c4ccccc34)cc2CO)ccn1 [Compound 52] | 5.33 | >10.0 | <5 | – | – | –
19 | OCc1cc(NCCc2c[nH]c3ccccc23)c(Br)cc1Nc1ccnc2c1CCC2O (centres unmarked) [Compound 54] | – | >10.0 | <5 | – | – | –
